Laboratory results as given in patent publication US20210401863A1, “TREATMENT AND PREVENTION OF NEISSERIA GONORRHOEAE INFECTION USING CMP-ACTIVATED NONULOSONATE ANALOG COMPOUNDS” (NATIONAL RESEARCH COUNCIL OF CANADA, priority 2015, published 2021).
Where two headings read alike, the source gives them in different places.

Tests used:
N. gonorrhoeae F62 ΔlgtD [1] = type: cell-based, Neisseria gonorrhoeae
Description: Generally, bacteria (F62 ΔlgtD) grown overnight on chocolate agar plates were suspended in gonococcal liquid media supplemented with IsoVitaleX [29] that contained specified concentrations of the CMP-nonulosonate. Bacteria were then incubated at 37° C. for the period specified in each experiment.
Serum bactericidal assays were performed as follows, similar to methods outlined in [32,33] and in U.S. Pat. No. 9,765,106. Bacteria were harvested from an overnight culture on chocolate agar plates and ˜10^5 CFU of Ng were grown in liquid media containing the concentrations of CMP-NuIO as specified for each experiment. Bacteria were diluted in Morse A and ˜2000 CFU of Ng F62 ΔlgtD were incubated with NHS (concentration specified for each experiment). The final reaction volumes were maintained at 150 μL. Aliquots of 25 μL of reaction mixtures were plated onto chocolate agar in duplicate at the beginning of the assay (t0) and again after incubation at 37° C. for 30 minutes (t30). Survival was calculated as the number of viable colonies at t30 relative to t0.
Addition of a terminal Neu5Ac residue to the LNnT LOS of N. gonorrhoeae that occurs in vivo or following the addition of CMP-Neu5Ac to growth media results in resistance to complement-dependent killing. We next determined the effects of LNnT incorporation of KDN on the ability of N. gonorrhoeae F62 ΔlgtD to resist complement-dependent killing by normal human sera at concentrations of 3.3% or 10%. Bacteria were grown either in media alone, or media supplemented with 20 μg/mL of CMP-Neu5Ac or CMP-KDN. In addition, CMP-NulO competition experiments were also performed with CMP-Neu5Ac, CMP-Leg5Ac7Ac and CMP-KDN at CMP-NulO concentrations of either 20 μg/mL or 2 μg/mL as indicated, where the second CMP-NulO was added 15 minutes after the first (Table 1 below). To note, these CMP-NulO competition experiments are a method to examine the ability of select CMP-NulOs to counter the enhanced serum resistance due to CMP-Neu5Ac addition, providing information on their therapeutic potential (as any potential therapeutic will be required to compete with CMP-Neu5Ac in vivo).

[2] = target: T1, gonococcal LOS sialyltransferase (Lst) (Neisseria gonorrhoeae, UniProt P72074); assay: mAb 3F11 binding by flow cytometry (incorporation of NulO on LNnT LOS by Lst); type: cell-based, N. gonorrhoeae F62 ΔlgtD; details: F62 ΔlgtD grown in media with 20 μg/mL CMP-NulO
T1 construct: CMP-KDN served as a substrate for gonococcal Lst in the context of live bacteria; endogenous in cells; host or cells: N. gonorrhoeae F62 ΔlgtD (live bacteria)
Description: FIG. 1: CMP-KDN serves as a substrate for gonococcal LOS and incorporation of KDN on gonococcal lacto-N-neotetraose LOS enhances factor H (FH) binding. A. Incorporation of KDN by gonococci. Gonococcal strain F62 ΔlgtD (expresses lacto-N-neotetraose (LNnT) from Hepl) was grown in media containing CMP-KDN (20 μg/mL) and binding of mAb 3F11 was measured by flow cytometry. mAb 3F11 binds only to […] LNnT; substitution of the terminal Gal of LNnT, for example with a NulO, will decrease mAb 3F11 binding. Approximately 5×10^7 bacteria were incubated with mAb 3F11 tissue culture supernatants for 15 minutes at 37° C. Binding of mAb 3F11 was disclosed with anti-mouse IgM FITC (Sigma; dilution of 1:100). Bacteria grown in CMP-Neu5Ac or in media alone were used as positive and negative controls for sialylation, respectively. A representative histogram is shown in the upper panel. […] B. Factor H (FH) binding to gonococci grown in CMP-KDN. Approximately 5×10^7 bacteria grown in media alone (no sialic acid), media plus CMP-Neu5Ac (20 μg/mL; positive control for FH binding) or in media containing CMP-KDN (20 μg/mL) were incubated with purified human FH (20 μg/mL) in HBSS** for 15 minutes at 37° C. and bound FH was detected with affinity isolated goat anti-human FH followed by anti-goat IgG FITC (Sigma; 1:100 dilution). A representative histogram is shown in the upper panel.
FIG. 3: CMP-KDN7N3 serves as a substrate for gonococcal Lst resulting in incorporation of KDN7N3 on gonococcal lacto-N-neotetraose (LNnT) LOS—Incorporation of KDN7N3 by gonococci. Gonococcal strain F62ΔlgtD (expresses lacto-N-neotetraose (LNnT) from Hepl) was grown in media containing CMP-KDN7N3 (20 μg/mL) and binding of mAb 3F11 was measured by flow cytometry. mAb 3F11 binds only to […] LNnT; substitution of the terminal Gal of LNnT, for example with a NulO, will decrease mAb 3F11 binding. Approximately 5×10^7 bacteria were incubated with mAb 3F11 tissue culture supernatants for 15 minutes at 37° C. Binding of mAb 3F11 was disclosed with anti-mouse IgM FITC (Sigma; dilution of 1:100). […]

N. gonorrhoeae H041 = assay: BALB/c mouse vaginal colonization model; type: in vivo; details: 10 μg intravaginally daily; Premarin treated BALB/c mice
Description: FIG. 2: Female BALB/c mice 5-6 weeks of age (Jackson Laboratories) in the diestrus phase of the estrous cycle were started on treatment (that day) with 0.5 mg of Premarin (Pfizer) given subcutaneously on each of three days; −2, 0 and +2 days (before, the day of and after inoculation) to prolong the estrus phase of the cycle and promote susceptibility to N. gonorrhoeae infection. Antibiotics (vancomycin, colistin, neomycin, trimethoprim and streptomycin) that were ineffective against N. gonorrhoeae were also used to reduce competitive microflora. Mice (n=40) were then infected with 10^6 CFU of strain H041. Three groups of mice (n=10/group) were treated with 10 μg intravaginally daily (first dose was administered 30 minutes before the introduction of bacteria) with one of the following CMP-NulOs in normal saline: CMP-Leg5Ac7Ac, CMP-Neu5Ac9Az or CMP-KDN. A fourth group (n=10) was given saline (vehicle control). Vaginal swabs were obtained daily from each animal, serially diluted and plated on chocolate agar containing vancomycin, colistin, neomycin, trimethoprim and streptomycin (VCNTS) to quantify bacterial loads. A. Median time to clearance was estimated using Kaplan-Meier survival curves; the times to clearance were compared between groups using a log-rank test. P<0.0001 for the control versus each of the treatment groups. Time to clearance between each of the treatment groups was similar (P>0.05). B. The mean area under the curve (log10 CFU vs. time) was computed for each mouse to estimate the bacterial burden over time (cumulative infection); the means under the curves were compared between groups using the Kruskal-Wallis nonparametric rank sum test because distributions were skewed or kurtotic. Groups were compared using Dunn's multiple comparison test. ****, P<0.0001; **, P<0.01; *, P<0.05. The differences among the groups that received CMP-NulOs were not significant.
The mouse model experiments and statistical analysis were conducted as described in the art and in U.S. Pat. No. 9,765,106. […]

[3] = target: T1, gonococcal LOS sialyltransferase (Lst); details: from U.S. patent application Ser. No. 14/627,396; cited from earlier work
purified human FH = details: from U.S. Pat. No. 9,765,106 / Ser. No. 14/627,396; cited from earlier work
N. gonorrhoeae F62 ΔlgtD [4] = details: from U.S. patent application Ser. No. 14/627,396; cited from earlier work

T1 sequence (P72074 whole entry): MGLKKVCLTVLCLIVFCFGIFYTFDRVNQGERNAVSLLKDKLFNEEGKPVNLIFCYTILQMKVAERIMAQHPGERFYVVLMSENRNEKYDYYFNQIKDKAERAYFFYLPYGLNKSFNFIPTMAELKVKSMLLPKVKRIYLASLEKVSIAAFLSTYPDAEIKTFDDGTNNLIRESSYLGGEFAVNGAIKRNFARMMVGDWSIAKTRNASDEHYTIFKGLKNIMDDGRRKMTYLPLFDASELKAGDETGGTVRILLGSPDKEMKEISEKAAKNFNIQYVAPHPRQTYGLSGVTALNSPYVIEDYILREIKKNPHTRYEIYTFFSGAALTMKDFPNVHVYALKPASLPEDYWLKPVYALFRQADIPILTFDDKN

Row | Structure (SMILES) | serum sensitivity (in words) (N. gonorrhoeae F62 ΔlgtD [1]; CMP-NulO alone, 10% serum) | % survival in 3.3% serum (N. gonorrhoeae F62 ΔlgtD [1]; Table 5, CMP-NulO 20 μg/mL) [%] | % survival in 10% serum (N. gonorrhoeae F62 ΔlgtD [1]; Table 5, CMP-NulO 20 μg/mL, 10% serum) [%] | % survival in 3.3% serum (N. gonorrhoeae F62 ΔlgtD [1]; Table 5, CMP-NulO 100 μg/mL) [%] | % survival in 10% serum (N. gonorrhoeae F62 ΔlgtD [1]; Table 5, CMP-NulO 100 μg/mL, 10% serum) [%] | binding of mAb 3F11 (use as substrate by gonococcal Lst) [2] | attenuation of N. gonorrhoeae H041 infection (N. gonorrhoeae H041) | substrate for gonococcal LOS sialyltransferase (Lst) (earlier results) [3] | fH binding to bacteria (earlier results) (purified human FH) | serum resistance / serum-mediated killing (earlier results) (N. gonorrhoeae F62 ΔlgtD [4]) | % survival in 3.3% serum (N. gonorrhoeae F62 ΔlgtD [1]; CMP-Neu5Ac (20 μg/mL) first, labelled CMP-NulO (20 μg/mL) added 15 minutes later) [%] | % survival in 10% serum (N. gonorrhoeae F62 ΔlgtD [1]; CMP-Neu5Ac (20 μg/mL) first, labelled CMP-NulO (20 μg/mL) added 15 minutes later, 10% serum) [%] | countering of serum resistance mediated by CMP-Neu5Ac (competition, in words) (N. gonorrhoeae F62 ΔlgtD [1]; CMP-NulO competition, second CMP-NulO 15 minutes after the first, 3.3% and 10% serum) | % survival in 3.3% serum (N. gonorrhoeae F62 ΔlgtD [1]; labelled CMP-NulO (20 μg/mL) first, CMP-Neu5Ac (2 μg/mL) added 15 minutes later) [%] | % survival in 10% serum (N. gonorrhoeae F62 ΔlgtD [1]; labelled CMP-NulO (20 μg/mL) first, CMP-Neu5Ac (2 μg/mL) added 15 minutes later, 10% serum) [%] | % survival in 3.3% serum (N. gonorrhoeae F62 ΔlgtD [1]; labelled CMP-NulO (20 μg/mL) first, CMP-Neu5Ac (20 μg/mL) added 15 minutes later) [%] | % survival in 10% serum (N. gonorrhoeae F62 ΔlgtD [1]; labelled CMP-NulO (20 μg/mL) first, CMP-Neu5Ac (20 μg/mL) added 15 minutes later, 10% serum) [%]
1 | [N-]=[N+]=N[C@@H](C1O[C@](OP(=O)(O)OC[C@H]2O[C@@H](n3ccc(N)nc3=O)C(O)C2O)(C(=O)O)CC(O)[C@H]1O)[C@H](O)CO (stereo partly drawn) [CMP-KDN7N3, cytidine 5′-monophospho-3,7-dideoxy-7-azido-D-glycero-D-galacto-nonulosonic acid] | resulted in serum sensitivity | 125.60 | 33.92 | 123.67 | 22.52 | could be utilized by gonococcal LOS sialyltransferase (Lst) | – | – | – | – | – | – | – | – | – | – | –
2 | CC(=O)N[C@@H]([C@@H]1O[C@](OP(=O)(O)OC[C@H]2O[C@@H](n3ccc(N)nc3=O)[C@H](O)[C@@H]2O)(C(=O)O)C[C@H](O)[C@H]1NC(C)=O)[C@@H](C)O [CMP-Leg5Ac7Ac] | – | – | – | – | – | – | significantly attenuated | can serve as substrates for gonococcal LOS sialyltransferase (Lst) | not enhance fH binding above levels seen with an unsialylated F62 ΔlgtD control | enhanced serum-mediated killing | 9 | 5 | blocked serum resistance mediated by CMP-Neu5Ac at both 3.3% and 10% serum concentrations irrespective of the order of addition | 6 | 6 | 7 | 3
3 | CC(=O)N[C@H]1[C@H]([C@H](O)[C@H](O)CN=[N+]=[N-])OC(OP(=O)(O)OC[C@H]2O[C@@H](n3ccc(N)nc3=O)[C@H](O)[C@@H]2O)(C(=O)O)C[C@@H]1O (stereo partly drawn) [CMP-Neu5Ac9Az] | – | – | – | – | – | – | significantly attenuated | can serve as substrates for gonococcal LOS sialyltransferase (Lst) | not enhance fH binding above levels seen with an unsialylated F62 ΔlgtD control | enhanced serum-mediated killing | – | – | – | – | – | – | –
